Data published in the supplement of paper PMC11061612.

Experiments:
Test in all cases: Bliss excess, mean over the matrix (fraction); higher = more synergy
[1] = system: 22RV1 (Prostate Carcinoma)
In short: (§1)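 Cell lines in DMEM/F12 or RPMI with 10% FBS were plated in 1536-well plates, held 24 hours at 37°C, 5% CO2, then given two-drug dose matrices for 72 hours (DMSO typically 0.2%). Viability was read by CellTiter-Glo 2.0 luminescence and scaled as inhibition from 0 (vehicle wells) to 1 (blank wells). Combination Emax is the second-highest inhibition in the matrix; Bliss excess is observed combination effect minus expected EA + EB − EA·EB, EA and EB being single-agent effects.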

769-P (Kidney Carcinoma) = system: 769-P (Kidney Carcinoma)
In short: as §1

[2] = system: CAL-27 (Oral Cavity Carcinoma)
In short: as §1

[3] = system: CESS (Acute Myeloid Leukemia)
In short: as §1

[4] = system: DMS-53 (Small Cell Lung Carcinoma)
In short: as §1

EB2 (Burkitt's Lymphoma) = system: EB2 (Burkitt's Lymphoma)
In short: as §1

[5] = system: GCT (Other Solid Carcinomas)
In short: as §1

[6] = system: HCC1395 (Breast Carcinoma)
In short: as §1

[7] = system: HCC1428 (Breast Carcinoma)
In short: as §1

HCC70 (Breast Carcinoma) = system: HCC70 (Breast Carcinoma)
In short: as §1

[8] = system: HT55 (Colorectal Carcinoma)
In short: as §1

IM-9 (Non-Cancerous) = system: IM-9 (Non-Cancerous)
In short: as §1

[9] = system: JIMT-1 (Breast Carcinoma)
In short: as §1

[10] = system: JVM-2 (B-Cell Non-Hodgkin's Lymphoma)
In short: as §1

[11] = system: Jurkat (T-Lymphoblastic Leukemia)
In short: as §1

KP-N-YN (Neuroblastoma) = system: KP-N-YN (Neuroblastoma)
In short: as §1

[12] = system: KYSE-140 (Esophageal Squamous Cell Carcinoma)
In short: as §1

[13] = system: MDA-MB-436 (Breast Carcinoma)
In short: as §1

[14] = system: OACp4C (Esophageal Adenocarcinoma)
In short: as §1

[15] = system: SK-HEP-1 (Hepatocellular Carcinoma)
In short: as §1

Row | Structure (SMILES) | Bliss excess [1] | Bliss excess (769-P (Kidney Carcinoma)) | Bliss excess [2] | Bliss excess [3] | Bliss excess [4] | Bliss excess (EB2 (Burkitt's Lymphoma)) | Bliss excess [5] | Bliss excess [6] | Bliss excess [7] | Bliss excess (HCC70 (Breast Carcinoma)) | Bliss excess [8] | Bliss excess (IM-9 (Non-Cancerous)) | Bliss excess [9] | Bliss excess [10] | Bliss excess [11] | Bliss excess (KP-N-YN (Neuroblastoma)) | Bliss excess [12] | Bliss excess [13] | Bliss excess [14] | Bliss excess [15]
1 | Cc1c2c(nn1C)CSCc1cc(n(C)n1)CSc1cc(c3ccccc3c1)OCCCc1c(C(=O)O)n(C)c3c-2c(Cl)ccc13 [AZD5991] + C1CN(CCC1(C(=O)N[C@@H](CCO)C2=CC=C(C=C2)Cl)N)C3=NC=NC4=C3C=CN4 [Capivasertib] (first compound max 1 µM, 7x7, partner max 3 µM) | 0.0404 | -0.0369 | 0.0073 | -0.0114 | 0.0168 | -0.0375 | -0.0219 | -0.003 | 0.0136 | 0.0761 | -0.0129 | -0.0616 | -0.0056 | 0.0245 | 0.0115 | -0.0382 | 0.0196 | -0.0204 | 0.019 | 0.0194
2 | Cc1c2c(nn1C)CSCc1cc(n(C)n1)CSc1cc(c3ccccc3c1)OCCCc1c(C(=O)O)n(C)c3c-2c(Cl)ccc13 [AZD5991] + C=CCn1c(=O)c2cnc(Nc3ccc(N4CCN(C)CC4)cc3)nc2n1-c1cccc(C(C)(C)O)n1 [AZD1775] (first compound max 1 µM, partner max 1 µM) | -0.003 | -0.071 | -0.0508 | -0.0098 | 0.0326 | -0.0969 | 0.0301 | -0.0172 | -0.0407 | 0.0278 | 0.0215 | -0.054 | 0.0464 | -0.0165 | -0.0066 | -0.0247 | 0.0145 | 0.0087 | 0.0186 | -0.0366
3 | Cc1c2c(nn1C)CSCc1cc(n(C)n1)CSc1cc(c3ccccc3c1)OCCCc1c(C(=O)O)n(C)c3c-2c(Cl)ccc13 [AZD5991] + CC1(C)CCC(CN2CCN(c3ccc(C(=O)NS(=O)(=O)c4ccc(NCC5CCOCC5)c([N+](=O)[O-])c4)c(Oc4cnc5[nH]ccc5c4)c3)CC2)=C(c2ccc(Cl)cc2)C1 [Venetoclax] (first compound max 1 µM, 7x7, partner max 1 µM) | -0.0149 | -0.0328 | -0.0081 | 0.0276 | 0.159 | 0.0144 | -0.0272 | -0.019 | 0.0221 | 0.0042 | -0.0244 | 0.218 | -0.0155 | 0.0109 | 0.0116 | 0.0865 | 0.0154 | -0.0513 | 0.13 | -0.0098
4 | Cc1c2c(nn1C)CSCc1cc(n(C)n1)CSc1cc(c3ccccc3c1)OCCCc1c(C(=O)O)n(C)c3c-2c(Cl)ccc13 [AZD5991] + CCN(CCO)CCCOc1ccc2c(Nc3cc(CC(=O)Nc4cccc(F)c4)[nH]n3)ncnc2c1 [AZD2811] (first compound max 1 µM, 7x7, partner max 1 µM) | -0.0004 | -0.0395 | 0.0403 | 0.192 | 0.0525 | 0.0391 | 0.0106 | 0.0432 | 0.0469 | -0.0219 | 0.0472 | -0.0112 | 0.0203 | 0.032 | 0.0119 | 0.0556 | 0.0169 | -0.0406 | 0.0088 | 0.0084
5 | Cc1c2c(nn1C)CSCc1cc(n(C)n1)CSc1cc(c3ccccc3c1)OCCCc1c(C(=O)O)n(C)c3c-2c(Cl)ccc13 [AZD5991] + C[C@@H]1COCCN1C2=NC(=NC(=C2)C3(CC3)[S@](=N)(=O)C)C4=C5C=CNC5=NC=C4 [AZD6738] (first compound max 1 µM, 7x7, partner max 10 µM) | 0.0449 | -0.0333 | 0.0358 | 0.066 | 0.0165 | -0.0097 | 0.06 | 0.0307 | -0.0045 | -0.0069 | 0.0901 | -0.0532 | 0.0789 | -0.0128 | -0.0178 | -0.0067 | 0.0119 | -0.0031 | 0.0108 | 0.0225
6 | Cc1c2c(nn1C)CSCc1cc(n(C)n1)CSc1cc(c3ccccc3c1)OCCCc1c(C(=O)O)n(C)c3c-2c(Cl)ccc13 [AZD5991] + C[C@@H](Nc1cc(F)cc(F)c1)c1cc(C(=O)N(C)C)cc2c(=O)cc(N3CCOCC3)oc12 [AZD8186] (first compound max 1 µM, 7x7, partner max 3 µM) | -0.0029 | -0.0256 | 0.0034 | -0.0325 | 0.0267 | 0.0282 | -0.0351 | 0.0527 | -0.009 | 0.0937 | -0.0305 | -0.0376 | -0.0492 | 0.0024 | -0.0077 | -0.0498 | -0.0439 | -0.0139 | 0.0153 | 0.0175
7 | Cc1c2c(nn1C)CSCc1cc(n(C)n1)CSc1cc(c3ccccc3c1)OCCCc1c(C(=O)O)n(C)c3c-2c(Cl)ccc13 [AZD5991] + Cc1cc2ncnn2cc1Nc1ncc2c(n1)n(C1CCOCC1)c(=O)n2C [AZD7648] (first compound max 1 µM, 7x7, partner max 10 µM) | -0.0528 | -0.0328 | -0.057 | 0.0437 | 0.0011 | 0.0285 | -0.0702 | -0.0497 | 0.0018 | -0.052 | -0.0152 | 0.014 | -0.0541 | -0.046 | -0.0234 | -0.0516 | -0.0345 | -0.042 | 0.008 | -0.0463
8 | C[C@@H]1COCCN1c1cc(C2([S@](C)(=N)=O)CC2)nc(-c2ccnc3[nH]ccc23)n1 [AZD6738] + O=C(c1cc(Cc2n[nH]c(=O)c3ccccc23)ccc1F)N1CCN(C(=O)C2CC2)CC1 [Olaparib] (first compound max 10 µM, 7x7, partner max 10 µM) | 0.0117 | -0.0656 | 0.12 | 0.0222 | -0.002 | -0.0553 | -0.0027 | 0.0255 | -0.003 | 0.0085 | 0.0204 | -0.0255 | -0.0247 | -0.0708 | 0.0592 | -0.203 | -0.0971 | -0.0176 | -0.0281 | 0.0248
9 | NC1(C(=O)N[C@@H](CCO)c2ccc(Cl)cc2)CCN(c2ncnc3[nH]ccc23)CC1 [Capivasertib] + CC(=O)c1c(C)c2cnc(Nc3ccc(N4CCNCC4)cn3)nc2n(C2CCCC2)c1=O [Palbociclib] (first compound max 10 µM, 7x7, partner max 10 µM) | 0.0306 | -0.0257 | -0.0242 | -0.0306 | 0.0477 | -0.0213 | -0.0569 | 0.0116 | -0.0201 | 0.0198 | -0.0186 | 0.0229 | -0.0115 | -0.036 | 0.0314 | -0.043 | -0.0427 | -0.0267 | -0.0239 | -0.109
10 | NC1(C(=O)N[C@@H](CCO)c2ccc(Cl)cc2)CCN(c2ncnc3[nH]ccc23)CC1 [Capivasertib] + CC(C)n1c(=O)n(C)c2cnc3cc(F)c(-c4ccc(OCCCN5CCCCC5)nc4)cc3c21 [AZD1390] (first compound max 10 µM, 7x7, partner max 0.3 µM) | -0.0886 | -0.0261 | -0.0886 | -0.0835 | 0.0083 | 0.0109 | -0.0509 | 0.0154 | -0.0538 | -0.023 | -0.0432 | -0.0516 | -0.0118 | -0.0662 | -0.047 | -0.112 | -0.033 | -0.0625 | -0.0479 | -0.0321
11 | NC1(C(=O)N[C@@H](CCO)c2ccc(Cl)cc2)CCN(c2ncnc3[nH]ccc23)CC1 [Capivasertib] + CCN(CCO)CCCOc1ccc2c(Nc3cc(CC(=O)Nc4cccc(F)c4)[nH]n3)ncnc2c1 [AZD2811] (first compound max 10 µM, 7x7, partner max 1 µM) | -0.0373 | -0.0139 | -0.0783 | 0.0217 | 0.0225 | -0.0299 | -0.0017 | 0.001 | 0.0066 | -0.0506 | -0.0412 | -0.0686 | 0.0154 | -0.142 | -0.0289 | -0.0515 | -0.0096 | -0.0424 | -0.0332 | -0.0553
12 | NC1(C(=O)N[C@@H](CCO)c2ccc(Cl)cc2)CCN(c2ncnc3[nH]ccc23)CC1 [Capivasertib] + COc1nnc2ccc(N3CCC(c4ccc(OCCN5CCN(C)C(=O)[C@H]5C)cc4)CC3)nn12 [AZD5153] (first compound max 10 µM, 7x7, partner max 1 µM) | 0.0032 | 0.055 | -0.0366 | 0.0506 | -0.0195 | -0.0966 | 0.0049 | -0.0381 | -0.0596 | 0.0422 | -0.0408 | -0.0708 | 0.0698 | -0.0764 | 0.0593 | -0.0718 | 0.0298 | -0.0555 | 0.0153 | -0.0784
13 | NC1(C(=O)N[C@@H](CCO)c2ccc(Cl)cc2)CCN(c2ncnc3[nH]ccc23)CC1 [Capivasertib] + C[C@@H]1COCCN1C2=NC(=NC(=C2)C3(CC3)[S@](=N)(=O)C)C4=C5C=CNC5=NC=C4 [AZD6738] (first compound max 10 µM, 7x7, partner max 10 µM) | -0.0527 | -0.0448 | -0.0792 | 0.0044 | -0.0279 | -0.0714 | -0.0719 | -0.0687 | -0.0066 | -0.0586 | -0.0531 | -0.0514 | -0.0321 | -0.0607 | -0.0403 | -0.0395 | -0.0846 | -0.0473 | -0.0402 | -0.0744
14 | NC1(C(=O)N[C@@H](CCO)c2ccc(Cl)cc2)CCN(c2ncnc3[nH]ccc23)CC1 [Capivasertib] + Cn1cnc2c(F)c(Nc3ccc(Br)cc3Cl)c(C(=O)NOCCO)cc21 [Selumetinib] (first compound max 10 µM, 7x7, partner max 10 µM) | -0.0044 | 0.0062 | 0.0108 | -0.0147 | 0.0155 | -0.0049 | -0.0354 | 0.033 | 0.0149 | 0.18 | -0.0042 | -0.0169 | 0.0449 | 0.0533 | 0.009 | 0.053 | -0.0003 | 0.0258 | -0.0318 | -0.0083
